# In publication PMC2873112 (Chembiochem : a European journal of chemical biology, 2010):
# Legend:
# Cop6 [1] = biological target: T1, Cop6 (Coprinopsis cinerea, UniProt A8NCK5, N224D); assay: product profile by GC-MS; type: biochemical; settings: turnover only
# Cop6 [2] = biological target: T1, Cop6; assay: product analysis by chiral GC-MS; type: biochemical; settings: purified mutant; turnover only
# T1 sequence (A8NCK5 whole entry N224D): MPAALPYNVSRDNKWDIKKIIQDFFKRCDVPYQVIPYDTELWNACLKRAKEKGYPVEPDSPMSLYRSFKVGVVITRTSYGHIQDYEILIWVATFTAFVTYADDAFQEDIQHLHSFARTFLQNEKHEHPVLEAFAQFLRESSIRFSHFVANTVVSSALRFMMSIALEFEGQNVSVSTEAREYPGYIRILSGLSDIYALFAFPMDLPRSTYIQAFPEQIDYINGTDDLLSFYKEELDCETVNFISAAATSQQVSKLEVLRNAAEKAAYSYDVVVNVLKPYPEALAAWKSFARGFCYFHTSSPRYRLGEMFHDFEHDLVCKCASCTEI
SMILES,product profile by GC-MS (Cop6 [1]),product analysis by chiral GC-MS (Cop6 [2])
"CC(C)=CCC/C(C)=C/CC/C(C)=C/COP(=O)(O)OP(=O)(O)O [(E,E)-FPP]","N224D does not affect the product profile of Cop6 with its normal substrate (E,E)-FPP",
"CC(C)=CCC/C(C)=C/CC/C(C)=C\COP(=O)(O)OP(=O)(O)O [(Z,E)-FPP]",,Mutant Cop6N224D now makes a small amount of an additional compound
